Values quoted from earlier work, collected in US8680055B2, “Methods for decreasing steroidogenesis in prostate cancer cells” (University of Southern California, priority 2009, dated 2014).

Legend:
advanced CRPC = details: phase II trials
[1] = tested on: PCa resistant to multiple hormonal therapies; details: chemotherapy-naive men

Compound: CC(=O)N1CCN(c2ccc(OCC3COC(Cn4ccnc4)(c4ccc(Cl)cc4Cl)O3)cc2)CC1 (centres unmarked) [ketoconazole]
- median duration of response (advanced CRPC): up to 7 months
- response rate by PSA working group (PSAWG) criteria (advanced CRPC): 40-62%

Compound: CC(=O)O[C@H]1CC[C@@]2(C)C(=CC[C@@H]3[C@@H]2CC[C@]2(C)C(c4cccnc4)=CC[C@@H]32)C1 [abiraterone acetate]
- patients with declines in PSA ≧90% ([1]; 6 patients): 29%
- patients with declines in PSA ≧50% ([1]; 12 patients): 57%
- patients with declines in PSA ≧30% ([1]; 14 patients): 66%
